In US7754772B2, “Nitrosated nonsteroidal antiinflammatory compounds, compositions and methods of use” (NicOx, S.A., priority 2002, dated 2010):

Columns and labels:
[1] = tested on: Male Sprague Dawley rats, gastric hemorrhagic lesion; details: rat, in vivo, po
Procedure: Male Sprague Dawley rats (Charles River Laboratories, Wilmington, Mass.) weighing 230-250 g were used for the experiments. The rats were housed with laboratory chow and water ad libitum prior to the study. The rats were fasted for 24 hours with free access to water and then dosed by oral gavage with vehicle or with test compounds given at a volume of 0.5 mL/100 g. […] Rats were euthanized by CO2 three hours after dosing. The stomachs were dissected along the greater curvature, washed with a directed stream of 0.9% saline and pinned open on a sylgard based petri dish for examination of the hemorrhagic lesion. Gastric lesion score was expressed in mm and calculated by summing the length of each lesion.

[2] = tested on: Male Sprague-Dawley rats, carrageenan paw edema; experiment: rat paw edema test (carrageenan), antiinflammatory activity; assay type: in vivo
Procedure: The rat paw edema test was used to measure the antiinflammatory activity. The rat paw edema test was performed according to the method of Winter et al, Proc. Soc. […] Male Sprague-Dawley rats (250-275 g) were fasted overnight and dosed by oral gavage with vehicle or suspensions of compound one hour prior to the subplantar injection of 50 μl of 1% suspension of carrageenan. Three hours later, the paw volume was measured and compared with the initial volume measured immediately after carrageenan injection.

[3] = oral gavage one hour prior to subplantar carrageenan, paw volume three hours later, expressed as ratio (Vehicle = 1)

| Structure (SMILES) | Relative Activity Gastric Lesion [1] | Relative Activity Antiinflammation [2, 3] | Relative Activity Antiinflammation ([2]; in vivo, po) |
| --- | --- | --- | --- |
| COc1ccc2cc(C(C)C(=O)OCCN(CCO[N+](=O)[O-])c3ccc([N+](=O)[O-])cc3)ccc2c1 (centres unmarked) [Example 4, 2-((2-(Nitrooxy)ethyl)4-nitrophenyl)amino)ethyl 2-(6-methoxy-2-naphthyl) propanoate] | 0.04 | 0.92 |  |
| COc1ccc2cc([C@H](C)C(=O)OC[C@H](CO[N+](=O)[O-])O[N+](=O)[O-])ccc2c1 [Example 5] | 0.21 |  | 0.45 |
| COc1ccc2cc([C@H](C)C(=O)OCC(=O)N3CCC(CO[N+](=O)[O-])CC3)ccc2c1 [Example 19, 2-(4-((Nitrooxy)methyl)piperidyl)-2-oxoethyl (2S)-2-(6-methoxy(2-naphthyl))propanoate] | 0.30 | 0.60 |  |
| COc1ccc2cc([C@H](C)C(=O)OCC(=O)N3CCC(CCO[N+](=O)[O-])CC3)ccc2c1 [Example 31, 2-(4-(2-(nitrooxy)ethyl)piperidyl)-2-oxoethyl (2S)-2-(6-methoxy(2-naphthyl))propanoate] | 0.06 | 0.61 |  |
| COc1ccc2cc([C@H](C)C(=O)Oc3ccccc3C(=O)OCCO[N+](=O)[O-])ccc2c1 [Example 33] | 0.07 | 0.60 |  |
| COc1ccc2cc([C@H](C)C(=O)Oc3cccc(C(=O)OCCO[N+](=O)[O-])c3)ccc2c1 [Example 36] | 0.57 |  | 0.65 |
| COc1ccc2cc([C@H](C)C(=O)OCC(=O)N3CCN(CCO[N+](=O)[O-])CC3)ccc2c1.Cl [Example 37, 2-(4-(2-(Nitrooxy)ethyl)piperazinyl)-2-oxoethyl (2S)-2-(6-methoxy(2-naphthyl))propanoate hydrogen chloride] | 0.72 |  | 0.56 |
